The source of these data is PMC11499995 (Communications Biology, 2024).

For this test, the target named is T1, mNeonGreen (Branchiostoma lanceolatum, UniProt A0A1S4NYF2, C173I/S175A/W191I).
T1 sequence (A0A1S4NYF2 25-260 C173I/S175A/W191I): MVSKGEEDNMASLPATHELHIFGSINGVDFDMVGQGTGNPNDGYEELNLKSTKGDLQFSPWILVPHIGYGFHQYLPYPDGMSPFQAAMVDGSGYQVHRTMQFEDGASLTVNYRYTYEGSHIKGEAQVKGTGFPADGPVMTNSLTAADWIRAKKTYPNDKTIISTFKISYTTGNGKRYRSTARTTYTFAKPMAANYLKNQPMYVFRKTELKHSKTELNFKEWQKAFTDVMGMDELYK
The test is described as follows: fluorescence quenching titration, purified protein. Format: binding.

The structures appear in SMILES notation.

`O=S(=O)(O)O` [sulfate] showed a Kd of 33 ± 3 mM.

The Kd is the constant that tells how readily two partners part at equilibrium. The low end stands for tighter binding, the high end for weaker binding.
